Laboratory results reported in patent US20240336566A1, “CRYSTALLINE FORMS OF A COMPOUND FOR THE TARGETED DEGRADATION OF THE ANDROGEN RECEPTOR” (Arvinas Operations, Inc., priority 2023, published 2024).
Where two headings read alike, the source gives them in different places.

Experiments:
Assay type in all cases: physicochemical
[1] = Primary salt screen: XRPD post temperature cycling/evaporation, post drying and post storage at 40° C./75% RH
Procedure: • 30 mg samples of Compound A were weighed out into 2 mL screw cap sample vials for 96 experiments. To these, 200 μL of the appropriate solvent system was added to dissolve the material or form a slurry. See Table 16 for the solvent systems selected for the primary salt screen.
• 1.05 eq. of solid counterions were weighed into six separate vials each and 1 molar stock solutions were prepared for liquid counterions in 5 mL of THF. See Table 17 for selected counterions and mass/volume needed for 1.05 eq. additions. • 100 μL of the appropriate solvent was added to the solid counterions.
The solution/slurry of counterion was added to the solution/slurry of the free base material.
• The samples were placed in an incubator shaker to temperature cycle between ambient and 40° C. over 4 hour cycles. • After ca. 72 hours of temperature cycling, observations were noted, see Table 19.
• Where slurries were obtained, the solids were isolated via centrifugation. Solids and gels were analyzed by XRPD.
Any samples that were clear solutions after temperature cycling were left to evaporate at ambient conditions. See Table 20 for observations made after evaporation. Solids obtained through evaporation were analyzed by XRPD.
• The samples obtained from temperature cycling were dried under vacuum at 40° C. for ca. 20 hours while the samples obtained from evaporation were dried under vacuum at 40° C. for ca. 4 hours. […]

[2] = Co-crystal screen: XRPD post temperature cycling and post storage at 40° C./75% RH;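 for XRPD results, primary co-crystal screen post temperature cycling: value is the Compound A free base XRPD pattern number and 9 means a potential new one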; conditions: Compound A + 1.05 eq. co-former (= label)
[3] = 7-day stability assessment (appearance, HPLC, XRPD); conditions: for Reported Purity / Total impurities: HPLC
Procedure: The material was gently ground to release any agglomerates and loaded onto a multi-well plate with Kapton or Mylar polymer film to support the sample. […] Data were visualized and images generated using the HighScore Plus 4.7 desktop application (PANalytical, 2θ17).
They all remained white or off-white solids. • XRPD analysis determined the patterns were retained.

[4] = Compound A + 1.05 eq. counterion (= label), 1,4-Dioxane
[5] = Compound A + 1.05 eq. counterion (= label), 1,4-Dioxane, dried under vacuum at 40° C.
[6] = Compound A + 1.05 eq. counterion (= label), 1,4-Dioxane, stored ca. 20 hours
[7] = Compound A + 1.05 eq. counterion (= label), DCM
[8] = Compound A + 1.05 eq. counterion (= label), DCM, dried under vacuum at 40° C.
[9] = Compound A + 1.05 eq. counterion (= label), DCM, stored ca. 20 hours
[10] = Compound A + 1.05 eq. counterion (= label), THF
[11] = Compound A + 1.05 eq. counterion (= label), THF, dried under vacuum at 40° C.
[12] = Compound A + 1.05 eq. counterion (= label), THF, stored ca. 20 hours
[13] = Compound A + 1.05 eq. counterion (= label), DMSO:Water (50:50 % v/v)
[14] = Compound A + 1.05 eq. counterion (= label), DMSO:Water (50:50 % v/v), stored ca. 20 hours
[15] = Compound A + 1.05 eq. counterion (= label), THF:Water (98:2 % v/v)
[16] = 7 days at 40° C./75% RH (open vial)
[17] = 7 days at Ambient light (closed vial)
[18] = input material before storage (baseline of the stability assessment)

Structure (SMILES)	XRPD results post temperature cycling and evaporation [1, 4]	XRPD results post drying [1, 5]	XRPD results post 40° C./75% RH [1, 6]	XRPD results post temperature cycling and evaporation [1, 7]	XRPD results post drying [1, 8]	XRPD results post 40° C./75% RH [1, 9]	XRPD results post temperature cycling and evaporation [1, 10]	XRPD results post drying [1, 11]	XRPD results post 40° C./75% RH [1, 12]	XRPD results post temperature cycling and evaporation [1, 13]	other results
O=C(O)/C=C/C(=O)O [Fumaric acid]	S t *	A t d	A t	A e	A e	A e	A e	A e	A e		XRPD results post temperature cycling and evaporation ([1]; Compound A + 1.05 eq. counterion (= label), DCM:Methanol (50:50 % v/v)): A e; XRPD results post drying ([1]; Compound A + 1.05 eq. counterion (= label), DCM:Methanol (50:50 % v/v), dried under vacuum at 40° C.): A e; XRPD results post 40° C./75% RH ([1]; Compound A + 1.05 eq. counterion (= label), DCM:Methanol (50:50 % v/v), stored ca. 20 hours): A e
O=C(O)C[C@H](O)C(=O)O [l-Malic acid]				A e	A e	A e	A e	A e	A e	A t	
N[C@@H](CCC(=O)O)C(=O)O [l-Glutamic]				C e	C e	C e				A t	
O=S(=O)(O)O [Sulfuric acid]											XRPD results post 40° C./75% RH [1]: A t and A e; XRPD results post drying [1]: A t and A e; XRPD results post temperature cycling and evaporation [1]: A t and A e
CS(=O)(=O)O [Methanesulfonic acid]	A t	A t	A t	A e	A e	A e				A t	XRPD results post drying ([1]; Compound A + 1.05 eq. counterion (= label), DMSO:Water (50:50 % v/v), dried under vacuum at 40° C.): A t; XRPD results post 40° C./75% RH [1, 14]: A t; XRPD results post temperature cycling and evaporation [1, 15]: A e; XRPD results post drying ([1]; Compound A + 1.05 eq. counterion (= label), THF:Water (98:2 % v/v), dried under vacuum at 40° C.): A e; XRPD results post 40° C./75% RH ([1]; Compound A + 1.05 eq. counterion (= label), THF:Water (98:2 % v/v), stored ca. 20 hours): A e
O=C(O)c1ccccc1 [Benzoic acid]				A e	A e	A e					
O=C(O)[C@@H]1CCCN1 [L-Proline]											XRPD results, primary co-crystal screen post storage at 40° C./75% RH ([2]; 1,4-Dioxane): 4; XRPD results, primary co-crystal screen post temperature cycling ([2]; 1,4-Dioxane): 9; XRPD results, primary co-crystal screen post storage at 40° C./75% RH ([2]; DCM:Methanol (50:50 % v/v)): 2; XRPD results, primary co-crystal screen post temperature cycling ([2]; DCM:Methanol (50:50 % v/v)): 2; XRPD results, primary co-crystal screen post storage at 40° C./75% RH ([2]; THF): 1; XRPD results, primary co-crystal screen post temperature cycling ([2]; THF): 1
COc1cc(O[C@H]2C(C)(C)[C@H](NC(=O)c3ccc(N4CCC(CN5CCN(c6ccc(C(=O)N[C@H]7CCC(=O)NC7=O)c(F)c6)CC5)CC4)cc3)C2(C)C)ccc1C#N [free base Pattern 2]											HPLC purity [3, 16]: 98.37 % relative area; XRPD after stability storage [3, 16]: No change; HPLC purity ([3]; 7 days at 80° C. (closed vial)): 98.33 % relative area; XRPD after stability storage ([3]; 7 days at 80° C. (closed vial)): No change; HPLC purity [3, 17]: 98.27 % relative area; XRPD after stability storage [3, 17]: No change; Reported Purity ([3]; after 7 days at 40° C./75% RH): 98.37 Area %; Total impurities ([3]; after 7 days at 40° C./75% RH): 1.63 Area %; Reported Purity ([3]; after 7 days at 80° C.): 98.33 Area %; Total impurities ([3]; after 7 days at 80° C.): 1.67 Area %; Reported Purity ([3]; after 7 days at ambient): 98.27 Area %; Total impurities ([3]; after 7 days at ambient): 1.73 Area %; Reported Purity [3, 18]: 98.39 Area %; Total impurities [3, 18]: 1.61 Area %; purity retained after stability storage (HPLC) ([3]; after 7 days at 40° C./75% RH (open vial), 80° C. (closed vial), ambient light (closed vial)): > 98 % relative area; HPLC purity ([3]; before stability testing (condition N/A)): 98.39 % relative area
O=S(=O)(O)c1ccccc1 [Benzenesulfonic acid]	A t	A t	A t	A e	A e	A e	A t	A t	A t	A e	XRPD results post 40° C./75% RH [1, 14]: A e h; XRPD results post temperature cycling and evaporation [1, 15]: S e
